Several values for one entry are separate records, joined by “and”; a condition that tells them apart may be missing. Identical values can stand only once.
What was measured:
Test in all cases: radiometric filter-binding kinase assay, Kinaseprofiler
FGFR2 (human) = FGFR2 (human) (UniProt P21802); conditions: ATP 90 µM
PKN2 (human) = PKN2 (human) (UniProt Q16513); conditions: ATP 15 µM
CSK (human) = CSK (human) (UniProt P41240); conditions: ATP 15 µM
CSNK2A2 (human) = CSNK2A2 (human) (UniProt P19784); conditions: ATP 10 µM
ULK2 (human) = ULK2 (human) (UniProt Q8IYT8); conditions: ATP 15 µM
NEK11 (human) = NEK11 (human) (UniProt Q8NG66); conditions: ATP 200 µM
DAPK1 (human) = DAPK1 (human) (UniProt P53355); conditions: ATP 70 µM
NLK (human) = NLK (human) (UniProt Q9UBE8); conditions: ATP 200 µM
FGFR3 (human) = FGFR3 (human) (UniProt P22607); conditions: ATP 15 µM
TSSK2 (human) = TSSK2 (human) (UniProt Q96PF2); conditions: ATP 15 µM
PRKG1 (human) = PRKG1 (human) (UniProt Q13976); conditions: ATP 90 µM
PDGFRA (human) = PDGFRA (human) (UniProt P16234); conditions: ATP 120 µM
PRKACA (human) = PRKACA (human) (UniProt P17612); conditions: ATP 10 µM
HCK (human) = HCK (human) (UniProt P08631)
FGR (human) = FGR (human) (UniProt P09769); conditions: ATP 45 µM
PRKCB2 (human) = PRKCB2 (human) (UniProt P05771); conditions: ATP 10 µM
ITK (human) = ITK (human) (UniProt Q08881); conditions: ATP 200 µM
FRK (human) = FRK (human) (UniProt P42685); conditions: ATP 155 µM
[1] = target: JAK2 JH1 catalytic (human) (UniProt O60674); conditions: ATP 45 µM
RPS6KA6 KD1 KD2 (human) = RPS6KA6 KD1 KD2 (human) (UniProt Q9UK32); conditions: ATP 45 µM
DCLK2 (human) = DCLK2 (human) (UniProt Q8N568); conditions: ATP 90 µM
CDK6 CCND3 (human) = CDK6 CCND3 (human) (UniProt P30281+Q00534); conditions: ATP 200 µM
CLK2 (human) = CLK2 (human) (UniProt P49760); conditions: ATP 15 µM
ABL2 (human) = ABL2 (human) (UniProt P42684); conditions: ATP 45 µM
CHEK2 (human) = CHEK2 (human) (UniProt O96017); conditions: ATP 70 µM
[2] = target: PRKAA2 PRKAB1 PRKAG1 (human) (UniProt P54619+P54646+Q9Y478); conditions: ATP 45 µM
FGFR4 (human) = FGFR4 (human) (UniProt P22455); conditions: ATP 155 µM
EPHA5 (human) = EPHA5 (human) (UniProt P54756); conditions: ATP 10 µM
PRKCI (human) = PRKCI (human) (UniProt P41743); conditions: ATP 155 µM
CDK1 CCNB1 (human) = CDK1 CCNB1 (human) (UniProt P06493+P14635); conditions: ATP 45 µM
CLK3 (human) = CLK3 (human) (UniProt P49761); conditions: ATP 90 µM
PLK3 (human) = PLK3 (human) (UniProt Q9H4B4); conditions: ATP 70 µM

HCK (human), sequence (P08631 whole entry, looked up): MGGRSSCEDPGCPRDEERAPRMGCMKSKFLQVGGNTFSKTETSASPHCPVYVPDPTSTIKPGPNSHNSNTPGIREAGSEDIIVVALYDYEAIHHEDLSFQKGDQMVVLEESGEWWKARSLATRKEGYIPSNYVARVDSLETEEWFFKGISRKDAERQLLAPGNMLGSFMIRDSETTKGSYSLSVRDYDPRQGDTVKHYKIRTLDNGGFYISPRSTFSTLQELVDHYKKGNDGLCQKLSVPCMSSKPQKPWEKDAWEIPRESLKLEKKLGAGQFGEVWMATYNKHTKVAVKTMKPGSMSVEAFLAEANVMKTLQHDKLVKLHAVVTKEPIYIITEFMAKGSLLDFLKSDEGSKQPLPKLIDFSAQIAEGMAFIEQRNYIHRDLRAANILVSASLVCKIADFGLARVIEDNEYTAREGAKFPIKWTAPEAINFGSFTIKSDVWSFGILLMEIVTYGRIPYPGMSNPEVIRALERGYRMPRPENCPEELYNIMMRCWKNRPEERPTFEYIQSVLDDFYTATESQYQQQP
PRKG1 (human), sequence (Q13976 whole entry, looked up): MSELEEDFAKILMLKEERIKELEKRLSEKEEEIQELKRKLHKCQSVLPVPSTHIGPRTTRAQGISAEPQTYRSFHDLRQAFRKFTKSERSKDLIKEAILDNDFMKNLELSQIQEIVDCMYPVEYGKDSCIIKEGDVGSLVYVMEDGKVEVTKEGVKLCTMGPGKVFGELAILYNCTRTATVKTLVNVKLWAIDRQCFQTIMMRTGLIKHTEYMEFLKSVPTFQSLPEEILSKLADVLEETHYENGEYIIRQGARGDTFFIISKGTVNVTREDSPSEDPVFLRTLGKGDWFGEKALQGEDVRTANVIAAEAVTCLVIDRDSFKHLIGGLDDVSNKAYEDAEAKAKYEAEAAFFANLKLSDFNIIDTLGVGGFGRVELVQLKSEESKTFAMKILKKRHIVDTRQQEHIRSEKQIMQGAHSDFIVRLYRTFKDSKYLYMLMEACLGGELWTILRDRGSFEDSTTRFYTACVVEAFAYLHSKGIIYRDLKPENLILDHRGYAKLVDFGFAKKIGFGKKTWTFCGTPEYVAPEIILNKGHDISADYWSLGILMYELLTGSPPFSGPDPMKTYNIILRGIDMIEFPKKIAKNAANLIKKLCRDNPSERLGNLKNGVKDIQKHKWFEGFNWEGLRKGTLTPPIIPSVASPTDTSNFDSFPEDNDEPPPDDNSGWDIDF
RPS6KA6 KD1 KD2 (human), sequence (Q9UK32 whole entry, looked up): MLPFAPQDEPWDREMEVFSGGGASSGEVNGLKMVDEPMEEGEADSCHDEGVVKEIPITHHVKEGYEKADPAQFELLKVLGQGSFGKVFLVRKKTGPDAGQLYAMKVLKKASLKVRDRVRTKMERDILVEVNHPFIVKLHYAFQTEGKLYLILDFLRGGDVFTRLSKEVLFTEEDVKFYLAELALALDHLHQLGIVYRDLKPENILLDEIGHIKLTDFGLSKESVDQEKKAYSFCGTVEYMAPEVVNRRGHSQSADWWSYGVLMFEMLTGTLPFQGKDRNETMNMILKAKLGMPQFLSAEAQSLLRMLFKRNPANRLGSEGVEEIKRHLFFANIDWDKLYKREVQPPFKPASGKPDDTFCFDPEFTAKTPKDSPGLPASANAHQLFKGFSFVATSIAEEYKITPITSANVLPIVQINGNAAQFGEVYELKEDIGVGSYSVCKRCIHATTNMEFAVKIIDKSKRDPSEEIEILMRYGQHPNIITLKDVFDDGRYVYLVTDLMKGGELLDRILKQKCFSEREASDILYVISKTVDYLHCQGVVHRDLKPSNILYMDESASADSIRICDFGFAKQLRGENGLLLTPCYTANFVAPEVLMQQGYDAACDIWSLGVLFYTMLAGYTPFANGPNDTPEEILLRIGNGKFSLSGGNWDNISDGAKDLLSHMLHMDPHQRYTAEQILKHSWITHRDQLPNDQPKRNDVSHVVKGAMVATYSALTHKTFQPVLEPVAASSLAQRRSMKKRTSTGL
CLK2 (human), sequence (P49760 whole entry, looked up): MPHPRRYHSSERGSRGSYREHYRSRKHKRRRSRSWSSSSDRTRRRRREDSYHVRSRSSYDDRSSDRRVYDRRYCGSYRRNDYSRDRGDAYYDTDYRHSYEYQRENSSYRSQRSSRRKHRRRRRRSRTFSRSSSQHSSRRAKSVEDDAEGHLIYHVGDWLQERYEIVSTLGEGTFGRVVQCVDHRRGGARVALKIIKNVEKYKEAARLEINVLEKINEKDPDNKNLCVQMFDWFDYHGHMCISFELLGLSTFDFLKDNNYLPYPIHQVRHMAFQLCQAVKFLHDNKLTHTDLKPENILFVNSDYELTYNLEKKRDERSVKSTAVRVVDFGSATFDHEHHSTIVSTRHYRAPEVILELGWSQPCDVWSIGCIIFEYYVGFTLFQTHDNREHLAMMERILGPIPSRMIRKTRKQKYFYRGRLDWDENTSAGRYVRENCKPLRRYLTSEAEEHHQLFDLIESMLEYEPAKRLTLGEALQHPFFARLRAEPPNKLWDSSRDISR
DCLK2 (human), sequence (Q8N568 whole entry, looked up): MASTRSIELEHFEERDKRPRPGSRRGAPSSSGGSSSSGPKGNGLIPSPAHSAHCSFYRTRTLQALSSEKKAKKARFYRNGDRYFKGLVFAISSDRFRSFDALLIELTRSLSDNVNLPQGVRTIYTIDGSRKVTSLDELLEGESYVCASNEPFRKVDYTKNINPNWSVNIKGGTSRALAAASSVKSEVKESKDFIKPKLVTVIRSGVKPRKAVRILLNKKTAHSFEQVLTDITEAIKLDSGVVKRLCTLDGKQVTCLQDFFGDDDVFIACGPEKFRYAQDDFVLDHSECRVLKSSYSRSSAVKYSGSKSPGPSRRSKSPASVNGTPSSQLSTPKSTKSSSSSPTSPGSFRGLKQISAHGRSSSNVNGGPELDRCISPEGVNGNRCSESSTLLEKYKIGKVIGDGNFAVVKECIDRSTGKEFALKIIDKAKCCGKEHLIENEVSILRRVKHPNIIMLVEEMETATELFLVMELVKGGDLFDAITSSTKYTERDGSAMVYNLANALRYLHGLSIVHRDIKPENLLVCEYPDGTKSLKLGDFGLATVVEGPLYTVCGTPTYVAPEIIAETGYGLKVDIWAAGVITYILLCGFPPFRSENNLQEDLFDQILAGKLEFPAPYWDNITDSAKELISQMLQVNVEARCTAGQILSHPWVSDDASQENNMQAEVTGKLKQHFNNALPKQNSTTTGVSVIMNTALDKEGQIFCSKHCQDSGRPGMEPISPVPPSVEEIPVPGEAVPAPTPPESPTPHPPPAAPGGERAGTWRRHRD
FGFR3 (human), sequence (P22607 whole entry, looked up): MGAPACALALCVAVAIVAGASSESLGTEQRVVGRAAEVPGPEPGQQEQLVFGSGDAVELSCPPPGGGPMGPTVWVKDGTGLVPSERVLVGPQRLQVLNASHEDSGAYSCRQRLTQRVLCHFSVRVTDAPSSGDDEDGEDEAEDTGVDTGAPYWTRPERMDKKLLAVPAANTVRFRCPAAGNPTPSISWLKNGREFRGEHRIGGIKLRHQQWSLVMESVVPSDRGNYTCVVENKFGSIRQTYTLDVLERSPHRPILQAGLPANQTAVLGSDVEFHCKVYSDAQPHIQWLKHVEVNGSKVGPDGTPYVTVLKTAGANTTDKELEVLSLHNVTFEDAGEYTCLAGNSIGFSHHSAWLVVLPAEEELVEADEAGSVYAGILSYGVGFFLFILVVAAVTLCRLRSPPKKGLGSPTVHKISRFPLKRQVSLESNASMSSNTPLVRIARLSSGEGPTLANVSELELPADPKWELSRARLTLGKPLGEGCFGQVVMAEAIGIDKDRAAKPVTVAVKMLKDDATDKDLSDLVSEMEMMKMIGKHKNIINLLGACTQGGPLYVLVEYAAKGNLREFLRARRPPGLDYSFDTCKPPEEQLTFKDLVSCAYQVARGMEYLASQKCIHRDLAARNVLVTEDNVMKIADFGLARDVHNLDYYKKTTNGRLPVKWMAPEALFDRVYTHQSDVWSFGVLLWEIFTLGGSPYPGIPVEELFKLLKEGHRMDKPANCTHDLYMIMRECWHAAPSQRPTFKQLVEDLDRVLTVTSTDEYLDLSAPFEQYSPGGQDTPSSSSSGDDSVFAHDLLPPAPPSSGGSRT
FGFR4 (human), sequence (P22455 whole entry, looked up): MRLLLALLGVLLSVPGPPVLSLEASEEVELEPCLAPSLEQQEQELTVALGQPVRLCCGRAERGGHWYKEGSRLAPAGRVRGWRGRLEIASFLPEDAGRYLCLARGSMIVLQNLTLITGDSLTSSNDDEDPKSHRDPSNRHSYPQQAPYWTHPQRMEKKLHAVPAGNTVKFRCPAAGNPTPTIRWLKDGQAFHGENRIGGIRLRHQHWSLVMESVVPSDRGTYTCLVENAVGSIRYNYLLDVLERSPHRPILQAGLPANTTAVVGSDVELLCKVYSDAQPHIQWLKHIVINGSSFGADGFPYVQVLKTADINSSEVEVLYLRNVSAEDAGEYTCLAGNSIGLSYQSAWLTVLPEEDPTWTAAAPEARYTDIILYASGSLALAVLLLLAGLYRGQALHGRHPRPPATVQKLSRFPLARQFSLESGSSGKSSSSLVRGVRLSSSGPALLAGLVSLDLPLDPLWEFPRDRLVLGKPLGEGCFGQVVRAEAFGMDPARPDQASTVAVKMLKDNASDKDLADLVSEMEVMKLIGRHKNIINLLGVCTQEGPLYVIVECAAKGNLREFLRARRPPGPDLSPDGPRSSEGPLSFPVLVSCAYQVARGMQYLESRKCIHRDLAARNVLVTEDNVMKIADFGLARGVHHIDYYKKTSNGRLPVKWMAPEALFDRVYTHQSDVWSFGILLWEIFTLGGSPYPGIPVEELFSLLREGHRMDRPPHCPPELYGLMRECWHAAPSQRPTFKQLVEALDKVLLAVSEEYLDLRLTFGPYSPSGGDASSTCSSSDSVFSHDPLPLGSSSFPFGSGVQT

residual activity (FGFR2 (human); compound 1.0 µM): 52% | residual activity (FGFR2 (human); compound 10.0 µM): 12% | residual activity (PKN2 (human); compound 1.0 µM): 74% | residual activity (PKN2 (human); compound 10.0 µM): 32% | residual activity (CSK (human); compound 1.0 µM): 105% | residual activity (CSK (human); compound 10.0 µM): 93% | residual activity (CSNK2A2 (human); compound 1.0 µM): 59% | residual activity (CSNK2A2 (human); compound 10.0 µM): 18% | residual activity (ULK2 (human); compound 1.0 µM): 90% | residual activity (ULK2 (human); compound 10.0 µM): 45% | residual activity (NEK11 (human); compound 1.0 µM): 50% | residual activity (NEK11 (human); compound 10.0 µM): 47% | residual activity (DAPK1 (human); compound 1.0 µM): 91% | residual activity (DAPK1 (human); compound 10.0 µM): 68% | residual activity (NLK (human); compound 1.0 µM): 78% | residual activity (NLK (human); compound 10.0 µM): 71% | residual activity (FGFR3 (human); compound 1.0 µM): 72% | residual activity (FGFR3 (human); compound 10.0 µM): 40% | residual activity (TSSK2 (human); compound 1.0 µM): 92% | residual activity (TSSK2 (human); compound 10.0 µM): 86% | residual activity (PRKG1 (human); compound 1.0 µM): 90% and 79% | residual activity (PRKG1 (human); compound 10.0 µM): 60% and 79% | residual activity (PDGFRA (human); compound 1.0 µM): 108% | residual activity (PDGFRA (human); compound 10.0 µM): 86% | residual activity (PRKACA (human); compound 1.0 µM): 89% | residual activity (PRKACA (human); compound 10.0 µM): 73% | residual activity (HCK (human); compound 1.0 µM, ATP 45 µM): 80% | residual activity (HCK (human); compound 1.0 µM, ATP 70 µM): 57% | residual activity (HCK (human); compound 10.0 µM, ATP 45 µM): 83% | residual activity (HCK (human); compound 10.0 µM, ATP 70 µM): 27% | residual activity (FGR (human); compound 1.0 µM): 75% | residual activity (FGR (human); compound 10.0 µM): 38% | residual activity (PRKCB2 (human); compound 1.0 µM): 108% | residual activity (PRKCB2 (human); compound 10.0 µM): 102% | residual activity (ITK (human); compound 1.0 µM): 67% | residual activity (ITK (human); compound 10.0 µM): 21% | residual activity (FRK (human); compound 1.0 µM): 91% | residual activity (FRK (human); compound 10.0 µM): 58% | residual activity ([1]; compound 1.0 µM): 58% | residual activity ([1]; compound 10.0 µM): 11% | residual activity (RPS6KA6 KD1 KD2 (human); compound 1.0 µM): 43% | residual activity (RPS6KA6 KD1 KD2 (human); compound 10.0 µM): 52% | residual activity (DCLK2 (human); compound 1.0 µM): 116% | residual activity (DCLK2 (human); compound 10.0 µM): 51% | residual activity (CDK6 CCND3 (human); compound 1.0 µM): 76% | residual activity (CDK6 CCND3 (human); compound 10.0 µM): 31% | residual activity (CLK2 (human); compound 1.0 µM): 36% | residual activity (CLK2 (human); compound 10.0 µM): 21% | residual activity (ABL2 (human); compound 1.0 µM): 87% | residual activity (ABL2 (human); compound 10.0 µM): 72% | residual activity (CHEK2 (human); compound 1.0 µM): 29% | residual activity (CHEK2 (human); compound 10.0 µM): 2% | residual activity ([2]; compound 1.0 µM): 69% | residual activity ([2]; compound 10.0 µM): 28% | residual activity (FGFR4 (human); compound 1.0 µM): 110% | residual activity (FGFR4 (human); compound 10.0 µM): 89% | residual activity (EPHA5 (human); compound 1.0 µM): 115% | residual activity (EPHA5 (human); compound 10.0 µM): 63% | residual activity (PRKCI (human); compound 1.0 µM): 117% | residual activity (PRKCI (human); compound 10.0 µM): 107% | residual activity (CDK1 CCNB1 (human); compound 1.0 µM): 52% | residual activity (CDK1 CCNB1 (human); compound 10.0 µM): 35% | residual activity (CLK3 (human); compound 1.0 µM): 72% | residual activity (CLK3 (human); compound 10.0 µM): 34% | residual activity (PLK3 (human); compound 1.0 µM): 94% | residual activity (PLK3 (human); compound 10.0 µM): 82%
SMILES: O=C1c2ccccc2-c2n[nH]c3cccc1c23

Source: the kinase profiling compilation of Christmann-Franck et al. (2016)
